Measurements from patent US7238724B2, “Pharmaceutical compositions as inhibitors of dipeptidyl peptidase-IV (DPP-IV)” (Abbott Laboratories, priority 2004, dated 2007).

Experiments:
DPP8 = DPP8 (Homo sapiens, UniProt Q6V1X1); assay: DPP8 inhibitory constant (Table 1 selectivity comparison); type: biochemical
[1] = system: Normal mice (C57/BL6 strain); assay: acute oral glucose tolerance test (OGTT); type: in vivo; conditions: OGTT 5 gm/kg
Description: Compounds of the present invention were evaluated for their ability to treat diabetes using an acute oral glucose tolerance test (OGTT) as follows: Normal mice (C57/BL6 strain), 6-7 weeks of age, on a normal chow diet, were fasted for 3 hrs. A baseline tail snip blood sample was taken to measure glucose levels (Precision PCx glucose meter, Abbott Laboratories, Abbott Park, Ill.) at the beginning of the experiment. Immediately after this baseline sample, compounds of the present invention (or placebo) were dosed orally. One hour later, a tail snip blood glucose measurement was taken, immediately followed by an oral glucose dose (OGTT, 5 gm/kg). The glucose excursion was followed for 2 hours with samples taken at 10, 20, 30, 60 and 120 minutes post OGTT. These timed glucose data were used to construct a glucose excursion curve, from which an area under the glucose curve (AUGC) was determined. The data reported in Table 2 is the baseline-adjusted area under the glucose curve (δAUGC) for drug and control groups.

DPP9 = DPP9 (Homo sapiens, UniProt Q86TI2); assay: DPP9 inhibitory constant (Table 1 selectivity comparison); type: biochemical
Chain of DPP9 (Q86TI2 whole entry, species assumed): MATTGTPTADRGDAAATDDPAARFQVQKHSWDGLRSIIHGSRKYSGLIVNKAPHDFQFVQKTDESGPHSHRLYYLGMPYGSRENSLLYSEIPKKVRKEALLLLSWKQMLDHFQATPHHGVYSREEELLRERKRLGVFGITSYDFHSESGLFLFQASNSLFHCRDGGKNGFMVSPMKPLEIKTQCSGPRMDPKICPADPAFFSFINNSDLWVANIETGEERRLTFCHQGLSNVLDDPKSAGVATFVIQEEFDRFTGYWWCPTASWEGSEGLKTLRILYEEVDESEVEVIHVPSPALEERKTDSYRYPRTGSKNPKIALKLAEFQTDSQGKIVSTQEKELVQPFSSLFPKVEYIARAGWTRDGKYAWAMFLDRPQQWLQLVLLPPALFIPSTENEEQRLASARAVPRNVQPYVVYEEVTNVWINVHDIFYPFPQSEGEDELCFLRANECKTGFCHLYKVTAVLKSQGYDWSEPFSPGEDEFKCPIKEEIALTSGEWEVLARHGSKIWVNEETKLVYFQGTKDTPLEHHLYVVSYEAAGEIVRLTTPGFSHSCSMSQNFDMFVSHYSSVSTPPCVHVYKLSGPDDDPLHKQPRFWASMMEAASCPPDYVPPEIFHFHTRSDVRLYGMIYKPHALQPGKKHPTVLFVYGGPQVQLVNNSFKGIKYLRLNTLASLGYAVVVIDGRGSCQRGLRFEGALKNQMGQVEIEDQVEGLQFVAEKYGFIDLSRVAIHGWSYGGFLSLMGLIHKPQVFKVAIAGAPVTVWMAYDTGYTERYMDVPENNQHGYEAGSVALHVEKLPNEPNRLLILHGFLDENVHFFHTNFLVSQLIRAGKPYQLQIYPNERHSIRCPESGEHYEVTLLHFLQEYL

Chain of DPP8 (Q6V1X1 whole entry, species assumed): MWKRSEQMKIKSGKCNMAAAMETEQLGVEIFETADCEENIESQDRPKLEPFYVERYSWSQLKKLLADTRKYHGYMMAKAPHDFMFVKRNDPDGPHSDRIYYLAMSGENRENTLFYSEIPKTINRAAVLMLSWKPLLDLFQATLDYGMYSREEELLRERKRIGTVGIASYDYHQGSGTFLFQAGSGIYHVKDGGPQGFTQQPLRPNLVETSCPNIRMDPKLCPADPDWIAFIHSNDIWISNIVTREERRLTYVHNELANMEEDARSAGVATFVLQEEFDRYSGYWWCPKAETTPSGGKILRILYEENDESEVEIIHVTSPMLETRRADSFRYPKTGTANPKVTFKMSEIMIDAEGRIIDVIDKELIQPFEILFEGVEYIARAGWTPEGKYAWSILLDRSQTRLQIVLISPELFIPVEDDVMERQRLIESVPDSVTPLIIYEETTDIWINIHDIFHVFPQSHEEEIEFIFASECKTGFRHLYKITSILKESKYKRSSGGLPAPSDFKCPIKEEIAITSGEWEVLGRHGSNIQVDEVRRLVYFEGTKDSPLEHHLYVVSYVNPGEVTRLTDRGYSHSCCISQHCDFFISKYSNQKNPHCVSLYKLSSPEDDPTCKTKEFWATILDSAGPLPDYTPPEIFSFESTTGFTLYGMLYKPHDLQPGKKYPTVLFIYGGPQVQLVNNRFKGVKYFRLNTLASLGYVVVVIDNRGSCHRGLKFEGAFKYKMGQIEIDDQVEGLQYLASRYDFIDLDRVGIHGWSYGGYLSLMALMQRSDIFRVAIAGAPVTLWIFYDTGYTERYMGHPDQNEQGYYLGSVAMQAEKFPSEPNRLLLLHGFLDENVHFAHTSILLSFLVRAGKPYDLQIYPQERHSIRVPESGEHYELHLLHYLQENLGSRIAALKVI

| Ki (DPP8) [µM] | Ki (DPP9) [µM] | SMILES | δ AUGC, change versus Control ([1]; 1.0 mg/kg dosed orally) [%] | δ AUGC, change versus Control ([1]; 3.0 mg/kg dosed orally) [%] |
| --- | --- | --- | --- | --- |
| > 30 | – | C#C[C@H]1CC[C@@H](C#N)N1C(=O)CN[C@H]1CC[C@H](Oc2ccc(C#N)cn2)CC1 (relative stereo) [Compound 3, (2S,5R)-5-ethynyl-1-{N-(4-trans(5-cyano-pyridin-2-yloxy)cyclohexyl)glycyl}pyrrolidine-2-carbonitrile] | −39 | −54 |
| > 100 | > 100 | CC(C)(C)NCC(=O)N1[C@H](C#N)CC[C@@H]1C#N [Compound 9, (2R,5S)-1-[(tert-butylamino)acetyl]pyrrolidine-2,5-dicarbonitrile] | – | – |
